Measured values from patent US11202814B2, “Compositions for atopic skin” (INFINITEC ACTIVOS, S.L., priority 2018, dated 2021).

System: PGE2 release
Assay: Inhibitory effect on PGE2 release in cell culture, inflammation induced by IL1a
Assay type: cell-based, human
Procedure: The inhibitory effect on IL1a inflammatory induction of the non-encapsulated composition of Pinus pinaster bark extract and curcumin, capsules loaded with Pinus pinaster bark extract and curcumin, unloaded capsules, non-encapsulated composition of Pinus pinaster bark extract and non-encapsulated composition of curcumin were analysed on human dermal fibroblasts.
Human dermal fibroblasts (LIFE TECHNOLOGIES), seeded in a 96-well plate up to 80% confluency, were treated with the following compositions dissolved in medium DMEM (Dulbecco's Modified Eagle Medium) to a total volume of 1 ml: • a) pine bark extract (1%) • b) curcumin (0.01%) • c) Phosphotech phospholipids (having the same composition has described in example 2) (4%) • d) curcumin (0.01%)+pine bark extract (1%) • e) capsules (curcumin (0.01%)+pine bark extract (1%)+Phosphotech phospholipids (having the same composition has described in example 2) (4%)) for 48 hours. […] After 24 hours inhibitory effect on PGE2 in culture cell was measured using prostaglandin E2 EIA kit (Prostaglandin E2 EIA kit—Monoclonal (Item: 514010) Cayman Chemical).
The results are provided in Table 4 below wherein the PGE2 release is expressed in pg/ml. The reduction vs IL1a-induced fibroblasts is calculated as the result of PGE2 obtained for each treatment/the result of PGE2 obtained for IL1a-induced fibroblasts (without any treatment). […]

curcumin [Composition b]
Calculated reduction vs IL1a-induced fibroblasts (PGE2 of treatment / PGE2 of IL1a-induced fibroblasts (2170 pg/ml)): 0.232 | PGE2 (human dermal fibroblasts treated 48 hours, IL1a 5 pM, untreated IL1a-induced fibroblasts 2170, control 471 pg/ml): 503 pg/mL
